System: influenza virus (H3N2)
Experiment: antiviral efficacy on MDCK cell line in vitro
Type: cell-based
Conditions: MDCK cells infected with influenza virus (H3N2); test compound present from 1 hour after viral infection until end of culture; over a wide concentration range (FIG.3-5)
Experimental: For influenza virus, MDCK cells that were permissive of viral replication were grown up to sufficient numbers in growth media with supplements. Once MDCK cells were confluent they were seeded into 96 well flat-bottomed plates (2x10^4 cells/well), incubated overnight and then infected with the influenza virus (H3N2) at the correct concentration and incubated in order to allow productive infection of the MDCK cells.
After the initial seeding of cells overnight (200 µl/well), the medium was removed and influenza viral infection performed in a smaller volume (25µl/well) for 1 hour. After the 1 hour infection, the viral inoculum was removed and replaced with medium (200p1/well) containing test compound. Thus, disodium 2,6-dimethyl-1,4-dihydropyridine-3,5-bis(carbonyloxyacetate) and its derivatives - disodium 2,4,6-trimethyl-1,4-dihydropyridine-3,5-bis-carbonyloxyacetate and disodium 4-ethyl-2,6-dimethyl-1,4-dihydropyridine-3,5-bis(carbonyloxyacetate) (compounds with general formula I), were presented from 1 hour after viral infection until the end of the culture period.
The antiviral efficacy of disodium 2,6-dimethyl-1,4-dihydropyridine-3,5-bis(carbonyloxyacetate) and its derivatives - disodium 2,4,6-trimethyl-1,4-dihydropyridine-3,5-bis(carbonyloxyacetate) and disodium 4-ethyl-2,6-dimethyl-1,4-dihydropyridine-3,5-bis(carbonyloxyacetate) (compounds with general formula I), were compared with already known medicaments, such as 1-methyl-2-phenylthiomethyl-3-carbethoxy-4-dimethylaminomethyl-5-oxybromoindole monohydrate hydrochloride and Oseltamivir, and results were represented in FIG.1., FIG.2., FIG.3., FIG.4. and FIG.5.

SMILES	antiviral efficacy
CC1=C(C(=O)OCC(=O)O)C(C)C(C(=O)OCC(=O)O)=C(C)N1 [disodium 2,4,6-trimethyl-1,4-dihydropyridine-3,5-bis-carbonyloxyacetate]	effective against influenza
CC1=C(C(=O)OCC(=O)O)CC(C(=O)OCC(=O)O)=C(C)N1 [disodium 2,6-dimethyl-1,4-dihydropyridine-3,5-bis(carbonyloxyacetate)]	effective against influenza
CCC1C(C(=O)OCC(=O)O)=C(C)NC(C)=C1C(=O)OCC(=O)O [disodium 4-ethyl-2,6-dimethyl-1,4-dihydropyridine-3,5-bis(carbonyloxyacetate)]	effective against influenza

Source: patent EP2578218A1, “Antiviral efficacy of disodium 2,6-dimethyl-1,4-dihydropyridine-3,5-bis(carbonyloxyacetate) and its derivatives” (Grindeks, A Joint Stock Company, priority 2011, dated 2013)
